Publication PMC10535842, “Novel Thiazole-Based SIRT2 Inhibitors Discovered via Molecular Modelling Studies and Enzymatic Assays” (Pharmaceuticals, 2023)
Several values for one entry are separate records, joined by “and”; a condition that tells them apart may be missing. Equal entries are not always repeated. Where two headings read alike, the source gives them in different places.

Legend:
recombinant SIRT2 = molecular target: T1, recombinant SIRT2 (Homo sapiens, UniProt Q8IXJ6); experiment: SIRT2 deacetylase activity, recombinant SIRT2 incubated with acetylated peptide H3K9Ac and NAD+; type: biochemical; conditions: recombinant protein
T1 sequence (Q8IXJ6 1-389): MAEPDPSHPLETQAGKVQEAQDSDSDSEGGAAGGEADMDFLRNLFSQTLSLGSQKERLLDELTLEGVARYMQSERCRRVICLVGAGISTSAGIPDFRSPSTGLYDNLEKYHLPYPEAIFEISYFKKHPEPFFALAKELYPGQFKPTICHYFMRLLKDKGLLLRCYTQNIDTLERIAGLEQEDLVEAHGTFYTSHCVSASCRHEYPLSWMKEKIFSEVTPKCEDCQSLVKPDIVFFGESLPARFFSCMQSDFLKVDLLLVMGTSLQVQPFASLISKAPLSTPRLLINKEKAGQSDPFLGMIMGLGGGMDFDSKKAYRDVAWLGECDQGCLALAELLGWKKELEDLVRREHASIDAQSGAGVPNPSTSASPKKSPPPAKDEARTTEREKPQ
Protocol: The effect of the in silico screened compounds on the SIRT2 deacetylase activity was evaluated thanks to the incubation of recombinant SIRT2 with an acetylated peptide (H3K9Ac, a peptide acetylated on Lys 9) and NAD^+.

recombinant human HSP70 = molecular target: T2, recombinant human HSP70 (Homo sapiens, UniProt P0DMV8); experiment: HSP70 ATPase catalytic activity, Malachite green assay; type: biochemical; conditions: 300 μM final concentration; read-out: percentage of inhibition of HSP70 ATPase activity
T2 construct: made in house; host or cells: E. coli BL21 (DE3)
Protocol: The impact of selected molecules on the ATPase catalytic activity of an in-house produced recombinant human HSP70 protein was determined using the Malachite green assay, incubating the recombinant protein with ATP in the presence or absence of different compounds (300 μM final concentration). The percentage of inhibition exerted by the selected compounds on the ATPase activity was as follow: 1a, 49 ± 2%; 2a, 40 ± 1%; 3a, 44 ± 4%; 4a, 20 ± 1%; 5a, 19 ± 1%; 6a, 37 ± 1%; 7a, 47 ± 1%.
The recombinant human Hsp70 protein was produced in BL21 (DE3) E. coli transformed with the pET-6xHis/hHSP70 plasmid containing the coding sequence for human HSP70 (hHSPA1A gene, NM_005345.6; purchased from Vector Builder, Vector ID VB210930). This vector allowed for producing an N-terminal 6xHis tag fusion HSP70 protein.
BL21 cells containing the vector were initially grown in Luria−Bertani medium at 37 °C (Merck, Milan, Italy) with 200 μg/mL ampicillin until the culture reached an OD600 of 0.5. The 6xHis/hHSP70 fusion protein was expressed by adding isopropyl-β-d-thiogalactopyranoside (final concentration of 0.2 mM) and incubating the bacteria culture at 37 °C for 2 h. The cells were harvested by centrifugation and then lysed by sonication in 20 mM Tris-HCl, 250 mM KCl, and 10 mM MgCl2 pH 7.4; after the addition of Triton X-100 to a final concentration of 1% and incubation for 30 min at 4 °C, the lysates were centrifugated at 10,000× g for 15 min. The HSP70 protein was purified by affinity chromatography using His GraviTrap TALON columns (Euroclone, Milan, Italy). Briefly, after loading the lysate, the resin was washed twice with 20 mM Tris-HCl, 250 mM KCl, and 10 mM MgCl2 pH 7.4 and twice with the same buffer containing 10 mM of imidazole. The elution of the recombinant protein was obtained with 150 mM imidazole, pH 7.4. Imidazole was removed from the recombinant protein through overnight dialysis using a dialysis tubing membrane (Merck KGaA, Frankfurter Strasse 250 Darmstadt, Germany) and the protein was concentrated using a Centricon (Merck Millipore, 11 Avenida Norte Bis No. 513, San Salvador, El Salvador). The protein concentrations were determined using the Bradford assay (Bio-Rad Laboratories, Inc. Italy, Segrate) and the protein purity was monitored using SDS-PAGE.
The ATPase catalytic activity of recombinant human HSP70 was measured with a colorimetric assay using the malachite green reagent. Briefly, 6 µM of HSP70 protein was incubated for 30 min at 37 °C with 5 mM ATP in 20 mM Tris-HCl, 250 mM KCl, 10 mM MgCl2, and 0.02%TritonX-100, pH 7.4. The released phosphates were quantified by adding the malachite green reagent to an aliquot of this incubation and the absorbance was recorded at 620 nm using a Clariostar plate reader. The effects of thiazoles-based molecules on the ATPase catalytic activity were measured by adding (or not) the different molecules to the incubation (at 300 µM final concentration). To correct for non-enzymatic hydrolysis of ATP and for a specific absorbance of molecules, the absorbance signal of identically treated samples lacking the HSP70 protein was subtracted.

SIRT2 [1] = conditions: substrate ZMAL; read-out: SIRT2 IC50 (series A, compounds 1-26); cited from earlier work
SIRT2 [2] = conditions: substrate RHKK(Ac)-AMC; read-out: SIRT2 IC50 (series B, compounds 27-111); cited from earlier work
SIRT2 [3] = conditions: HPLC assay, H3K9Ac; read-out: SIRT2 IC50 (series C, compounds 112-116); cited from earlier work

T2 sequence (P0DMV8 whole entry): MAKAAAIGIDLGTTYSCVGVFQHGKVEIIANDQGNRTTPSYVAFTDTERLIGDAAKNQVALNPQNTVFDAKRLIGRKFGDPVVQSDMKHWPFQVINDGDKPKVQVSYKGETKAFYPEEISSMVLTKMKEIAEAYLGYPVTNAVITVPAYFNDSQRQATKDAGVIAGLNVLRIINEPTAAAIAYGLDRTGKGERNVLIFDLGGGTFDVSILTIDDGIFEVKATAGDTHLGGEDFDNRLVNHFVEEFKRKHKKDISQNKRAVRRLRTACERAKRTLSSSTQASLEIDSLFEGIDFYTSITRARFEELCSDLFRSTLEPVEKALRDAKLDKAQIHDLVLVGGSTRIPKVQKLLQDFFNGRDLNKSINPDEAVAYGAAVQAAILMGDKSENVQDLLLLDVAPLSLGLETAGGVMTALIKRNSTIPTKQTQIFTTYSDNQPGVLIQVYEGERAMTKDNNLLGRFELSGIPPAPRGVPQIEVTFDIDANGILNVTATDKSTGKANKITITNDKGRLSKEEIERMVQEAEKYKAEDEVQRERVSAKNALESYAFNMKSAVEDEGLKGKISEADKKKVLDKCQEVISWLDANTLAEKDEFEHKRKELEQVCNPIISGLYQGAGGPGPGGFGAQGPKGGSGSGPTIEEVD

Row | Structure (SMILES) | IC50 (SIRT2 [1]) | IC50 (SIRT2 [2]) | also measured
1 | CCc1ccc(Nc2nc(-c3ccc(Cl)cc3)cs2)cc1SC [Compound 2a] | – | – | % Inhibition SIRT2 (at 150 μM) (recombinant SIRT2): 100 ± 9%; inhibition at 150 µM (recombinant SIRT2): > 90%; IC50 (recombinant SIRT2): 17.3 ± 2 µM; inhibition at 300 µM (recombinant human HSP70): 40 ± 1%
2 | Cc1cccc(Cc2cnc(NC(=O)CSc3nc(C)cc(C)n3)s2)c1 [Compound 3] | 1.64 µM | – | –
3 | CSc1cccc(Nc2nc(-c3cccc(Cl)c3)cs2)c1 [Compound 3a] | – | – | inhibition at 150 µM (recombinant SIRT2): 60 ± 8%; inhibition at 300 µM (recombinant human HSP70): 44 ± 4%
4 | Cc1cc(C)nc(SCC(=O)Nc2ncc(Cc3ccc(Cl)cc3)s2)n1 [Compound 4] | 3.4 µM | – | –
5 | CSc1cccc(Nc2nc(-c3ccc4c(c3)CC(=O)N4)cs2)c1 [Compound 4a] | – | – | inhibition at 150 µM (recombinant SIRT2): 60 ± 5%; inhibition at 300 µM (recombinant human HSP70): 20 ± 1%
6 | CCOc1cccc(Cc2cnc(NC(=O)CSc3nc(C)cc(C)n3)s2)c1 [Compound 5] | 1.33 µM | – | –
7 | CSc1cccc(Nc2nc(-c3ccc4[nH]c(=O)sc4c3)cs2)c1 [Compound 5a] | – | – | inhibition at 150 µM (recombinant SIRT2): 76 ± 9%; inhibition at 300 µM (recombinant human HSP70): 19 ± 1%
8 | Cc1cc(C)nc(SCC(=O)Nc2ncc(Cc3ccc(-c4ccccc4)cc3)s2)n1 [Compound 6] | 164 µM and > 167 µM | – | –
9 | O=C1Cc2cc(-c3csc(Nc4cccc(SC(F)(F)F)c4)n3)ccc2N1 [Compound 6a] | – | – | % Inhibition SIRT2 (at 150 μM) (recombinant SIRT2): 92 ± 7%; inhibition at 150 µM (recombinant SIRT2): > 90%; IC50 (recombinant SIRT2): 27.3 ± 4.7 µM; inhibition at 300 µM (recombinant human HSP70): 37 ± 1%
10 | O=C(CSc1cccc(O)c1)Nc1ncc(Cc2cccc3ccccc23)s1 [Compound 7] | 143 µM | – | –
11 | CCn1c(=O)/c(=C2\Sc3ccccc3N2C)s/c1=C\c1ccccn1 [Compound 7a, YM-08] | – | – | % Inhibition SIRT2 (at 150 μM) (recombinant SIRT2): 93 ± 9%; inhibition at 150 µM (recombinant SIRT2): > 90%; IC50 (recombinant SIRT2): 19.9 ± 2.1 µM; inhibition at 300 µM (recombinant human HSP70): 47 ± 1%
12 | Cc1cc(C)cc(SCC(=O)Nc2ncc(Cc3cccc4ccccc34)s2)c1 [Compound 8] | 207 µM and > 167 µM | – | –
13 | Cc1cc(C)nc(SCC(=O)Nc2ncc(C(=O)Nc3cccc4ccccc34)s2)n1 [Compound 9] | 33 µM | – | –
14 | Cc1cc(C)nc(SCC(=O)Nc2ncc(Cc3cccc4ccccc34)s2)n1 [Compound 10, SirReal2] | – | – | inhibition at 150 µM (recombinant SIRT2): 100 ± 5%
15 | Cc1cc(C)nc(SC(C)C(=O)Nc2ncc(Cc3cccc4ccccc34)s2)n1 (centres unmarked) [Compound 12] | 9.77 µM | – | –
16 | Cc1cc(C)nc(SC(C)C(=O)Nc2ncc(Cc3cccc4ccccc34)s2)n1 (centres unmarked) [Compound 13] | 0.26 µM | – | –
17 | Cc1cc(C)nc(SCC(=O)Nc2ncc(Cc3c(C)ccc4ccccc34)s2)n1 [Compound 14] | 0.31 µM | – | –
18 | Cc1cc(C)nc(SCC(=O)Nc2ncc(Cc3cccc4ccc(Br)cc34)s2)n1 [Compound 15] | 0.21 µM | – | –
19 | Cc1cc(C)nc(SCC(=O)Nc2ncc(Cc3cccc4cc(Cl)ccc34)s2)n1 [Compound 16] | 0.48 µM | – | –
20 | O=C(CSc1ncccn1)Nc1ncc(Cc2cccc3ccccc23)s1 [Compound 17] | 2.34 µM and 2.34 to 16.8 µM | – | –
21 | CCc1cc(CC)nc(SCC(=O)Nc2ncc(Cc3cccc4ccccc34)s2)n1 [Compound 18] | 45.6 µM | – | –
22 | Cc1nc(SCC(=O)Nc2ncc(Cc3cccc4ccccc34)s2)nc(C)c1C [Compound 19] | 15 µM | – | –
23 | CCCc1cc(O)nc(SCC(=O)Nc2ncc(Cc3cccc4ccccc34)s2)n1 [Compound 21] | 127 µM | – | –
24 | Cc1cc(C)nc(SCC(=O)Nc2nnc(Cc3ccc(Cl)cc3)s2)n1 [Compound 23] | 30.9 µM | – | –
25 | Cc1cc(C)nc(SCC(=O)Nc2nnc(Cc3ccc(Br)cc3)s2)n1 [Compound 24] | 168 µM | – | –
26 | Cc1cc(C)nc(SCC(=O)Nc2nnc(Cc3cccc4ccccc34)s2)n1 [Compound 25] | 1.89 µM | – | –
27 | CCOc1ccc2nc(NC(=O)CSc3nc(C)cc(C)n3)sc2c1 [Compound 26] | 207 µM and > 167 µM | – | –

Row | Structure (SMILES) | IC50 (SIRT2 [1]) | IC50 (SIRT2 [2]) | also measured
28 | O=c1c2c3c(sc2ncn1Cc1ccc2ccccc2c1)CC(NCC1CCCCC1)CC3 (centres unmarked) [Compound 87] | – | 5.53 µM | –
29 | O=c1c2c3c(sc2ncn1Cc1cccc2cccnc12)CC(NCC1CCCCC1)CC3 (centres unmarked) [Compound 88] | – | 2.43 µM | –
30 | COc1ccccc1Cn1cnc2sc3c(c2c1=O)CCC(NCC1CCCCC1)C3 (centres unmarked) [Compound 89] | – | 9.18 µM | –
31 | COc1ccc2ccccc2c1Cn1cnc2sc3c(c2c1=O)CCC(NCC1CCCO1)C3 (centres unmarked) [Compound 90] | – | 1.9 µM | –
32 | O=c1c2c3c(sc2ncn1Cc1cccc2ccccc12)CC(NCC1CCCO1)CC3 (centres unmarked) [Compound 91] | – | 12.5 µM | –
33 | O=c1c2c3c(sc2ncn1Cc1ccc2ccccc2c1)CC(NCC1CCCO1)CC3 (centres unmarked) [Compound 92] | – | 13.1 µM | –
34 | COc1ccc2ccccc2c1Cn1cnc2sc3c(c2c1=O)CCC(NCC1CCOC1)C3 (centres unmarked) [Compound 93] | – | 6.03 µM | –
35 | O=c1c2c3c(sc2ncn1Cc1cccc(-c2ccccc2)c1)CC(NCC1CCOC1)CC3 (centres unmarked) [Compound 94] | – | 2.58 µM | –
36 | O=c1c2c3c(sc2ncn1Cc1cccc2cccnc12)CC(NCCC1CCCCC1)CC3 (centres unmarked) [Compound 95] | – | 5.85 µM | –
37 | O=c1c2c3c(sc2ncn1Cc1cccc(-c2ccccc2)c1)CC(NCCC1CCCCC1)CC3 (centres unmarked) [Compound 96] | – | 3.74 µM | –
38 | COc1ccc2ccccc2c1Cn1cnc2sc3c(c2c1=O)CCC(NC1CCCC1)C3 (centres unmarked) [Compound 97] | – | 1.18 µM | –
39 | COc1ccc(Cn2cnc3sc4c(c3c2=O)CCC(NC2CCCC2)C4)c2ccccc12 (centres unmarked) [Compound 98] | – | 0.73 µM and < 1 µM | –
40 | O=c1c2c3c(sc2ncn1Cc1cccc(-c2ccccc2)c1)CC(NC1CCCC1)CC3 (centres unmarked) [Compound 99] | – | 1.52 µM | –
41 | COc1ccc2ccccc2c1Cn1cnc2sc3c(c2c1=O)CCC(NC1CCOCC1)C3 (centres unmarked) [Compound 100] | – | 1.11 µM | –
42 | COc1ccc(Cn2cnc3sc4c(c3c2=O)CCC(NC2CCOCC2)C4)c2ccccc12 (centres unmarked) [Compound 101] | – | 5.06 µM | –
43 | O=c1c2c3c(sc2ncn1Cc1cccc(-c2ccccc2)c1)CC(NC1CCOCC1)CC3 (centres unmarked) [Compound 102] | – | 1.74 µM | –
44 | O=c1c2c3c(sc2ncn1Cc1cccc(-c2ccccc2)c1)CC(NCCN1CCOCC1)CC3 (centres unmarked) [Compound 103] | – | 3.14 µM | –
45 | O=c1c2c3c(sc2ncn1Cc1cccc(-c2ccccc2)c1)CC(NCCN1CCCC1)CC3 (centres unmarked) [Compound 104] | – | 3.78 µM | –
46 | O=c1c2c3c(sc2ncn1Cc1cccc2cccnc12)CC(NC1CCc2ccccc21)CC3 (centres unmarked) [Compound 105] | – | 3.09 µM | –
47 | COc1ccccc1Cn1cnc2sc3c(c2c1=O)CCC(NC1CCc2ccccc21)C3 (centres unmarked) [Compound 106] | – | 16.3 µM | –
48 | O=c1c2c3c(sc2ncn1Cc1cccc2cccnc12)CC(NC1CCCc2ccccc21)CC3 (centres unmarked) [Compound 107] | – | 5.49 µM | –
49 | COc1ccc(CNCCc2sc3ncn(Cc4c(OC)ccc5ccccc45)c(=O)c3c2C)cc1 [Compound 108] | – | 3.36 µM | –
50 | COc1ccc2ccccc2c1Cn1cnc2sc(CCNCc3cccnc3)c(C)c2c1=O [Compound 109] | – | 2.15 µM | –
51 | COc1ccc2ccccc2c1Cn1cnc2sc(CCNCc3ccncc3)c(C)c2c1=O [Compound 110] | – | 2.93 µM | –
52 | COc1ccc2ccccc2c1Cn1cnc2sc(CCNC3CCOCC3)c(C)c2c1=O [Compound 111] | – | 8.15 µM | –
53 | O=C(On1nnc2ccccc21)c1cc[nH]c1 [Compound 112] | – | – | IC50 (SIRT2 [3]): 56.6 µM
